Experimental data from ChEMBL document CHEMBL3217588, “Discovery and activity profiling of thailandepsins A through F, potent histone deacetylase inhibitors, from Burkholderia thailandensis E264” (Medchemcomm, 2012).
pIC50: −log10 of the molar value.

Columns and labels:
Histone deacetylase 4 = Histone deacetylase 4 (Homo sapiens, UniProt P56524); assay: Inhibition of human recombinant HDAC4 after 1 hr by luminescence assay
Histone deacetylase 1 = Histone deacetylase 1 (Homo sapiens, UniProt Q13547); assay: Inhibition of human recombinant HDAC1 after 1 hr by luminescence assay
Chain of Histone deacetylase 1 (Q13547 whole entry): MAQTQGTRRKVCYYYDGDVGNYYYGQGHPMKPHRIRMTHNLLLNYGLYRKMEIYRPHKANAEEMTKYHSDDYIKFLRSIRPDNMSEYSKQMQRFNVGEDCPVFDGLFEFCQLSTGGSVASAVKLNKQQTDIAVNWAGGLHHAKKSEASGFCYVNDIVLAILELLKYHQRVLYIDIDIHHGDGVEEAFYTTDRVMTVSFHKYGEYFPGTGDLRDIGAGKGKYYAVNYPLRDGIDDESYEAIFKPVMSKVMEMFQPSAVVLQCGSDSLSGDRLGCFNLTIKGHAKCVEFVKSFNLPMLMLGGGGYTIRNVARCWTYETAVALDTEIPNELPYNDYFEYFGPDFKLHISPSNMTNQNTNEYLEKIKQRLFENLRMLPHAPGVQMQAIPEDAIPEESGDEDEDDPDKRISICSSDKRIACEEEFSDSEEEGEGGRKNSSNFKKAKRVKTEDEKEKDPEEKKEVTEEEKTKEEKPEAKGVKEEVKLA

[1] = target: T1, Protein deacetylase HDAC6 (Homo sapiens, UniProt Q9UBN7); assay: Inhibition of human recombinant HDAC6 after 1 hr by luminescence assay
T1 sequence (Q9UBN7 whole entry): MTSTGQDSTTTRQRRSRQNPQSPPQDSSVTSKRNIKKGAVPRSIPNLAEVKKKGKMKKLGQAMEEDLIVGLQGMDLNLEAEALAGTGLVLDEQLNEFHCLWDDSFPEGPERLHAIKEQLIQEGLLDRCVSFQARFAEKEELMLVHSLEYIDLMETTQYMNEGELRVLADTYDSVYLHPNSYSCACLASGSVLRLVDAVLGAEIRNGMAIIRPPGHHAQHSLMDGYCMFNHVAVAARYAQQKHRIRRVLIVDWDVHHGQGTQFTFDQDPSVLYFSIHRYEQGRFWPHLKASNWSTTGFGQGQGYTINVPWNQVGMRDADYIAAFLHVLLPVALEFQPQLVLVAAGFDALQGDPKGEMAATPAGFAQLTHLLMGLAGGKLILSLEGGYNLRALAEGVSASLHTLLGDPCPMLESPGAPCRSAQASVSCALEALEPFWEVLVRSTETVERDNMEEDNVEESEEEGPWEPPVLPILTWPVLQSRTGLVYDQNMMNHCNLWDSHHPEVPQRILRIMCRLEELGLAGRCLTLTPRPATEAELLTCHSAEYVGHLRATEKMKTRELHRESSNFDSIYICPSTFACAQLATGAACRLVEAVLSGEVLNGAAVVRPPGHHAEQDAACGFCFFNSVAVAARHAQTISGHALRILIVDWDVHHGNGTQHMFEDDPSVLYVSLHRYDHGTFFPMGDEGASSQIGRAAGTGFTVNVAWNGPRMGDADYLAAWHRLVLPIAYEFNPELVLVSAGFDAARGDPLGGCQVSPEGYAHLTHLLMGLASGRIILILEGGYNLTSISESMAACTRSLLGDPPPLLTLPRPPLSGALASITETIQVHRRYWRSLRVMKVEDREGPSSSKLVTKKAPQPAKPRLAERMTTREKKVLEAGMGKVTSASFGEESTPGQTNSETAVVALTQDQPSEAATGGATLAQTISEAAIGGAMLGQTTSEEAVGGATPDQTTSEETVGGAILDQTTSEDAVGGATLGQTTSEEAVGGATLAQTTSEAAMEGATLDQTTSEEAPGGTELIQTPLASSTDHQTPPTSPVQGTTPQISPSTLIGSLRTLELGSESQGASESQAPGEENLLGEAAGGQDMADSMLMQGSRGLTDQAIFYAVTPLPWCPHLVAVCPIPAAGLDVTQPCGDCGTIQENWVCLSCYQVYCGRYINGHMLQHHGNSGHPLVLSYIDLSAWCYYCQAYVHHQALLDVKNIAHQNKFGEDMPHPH

Chain of Histone deacetylase 4 (P56524 whole entry): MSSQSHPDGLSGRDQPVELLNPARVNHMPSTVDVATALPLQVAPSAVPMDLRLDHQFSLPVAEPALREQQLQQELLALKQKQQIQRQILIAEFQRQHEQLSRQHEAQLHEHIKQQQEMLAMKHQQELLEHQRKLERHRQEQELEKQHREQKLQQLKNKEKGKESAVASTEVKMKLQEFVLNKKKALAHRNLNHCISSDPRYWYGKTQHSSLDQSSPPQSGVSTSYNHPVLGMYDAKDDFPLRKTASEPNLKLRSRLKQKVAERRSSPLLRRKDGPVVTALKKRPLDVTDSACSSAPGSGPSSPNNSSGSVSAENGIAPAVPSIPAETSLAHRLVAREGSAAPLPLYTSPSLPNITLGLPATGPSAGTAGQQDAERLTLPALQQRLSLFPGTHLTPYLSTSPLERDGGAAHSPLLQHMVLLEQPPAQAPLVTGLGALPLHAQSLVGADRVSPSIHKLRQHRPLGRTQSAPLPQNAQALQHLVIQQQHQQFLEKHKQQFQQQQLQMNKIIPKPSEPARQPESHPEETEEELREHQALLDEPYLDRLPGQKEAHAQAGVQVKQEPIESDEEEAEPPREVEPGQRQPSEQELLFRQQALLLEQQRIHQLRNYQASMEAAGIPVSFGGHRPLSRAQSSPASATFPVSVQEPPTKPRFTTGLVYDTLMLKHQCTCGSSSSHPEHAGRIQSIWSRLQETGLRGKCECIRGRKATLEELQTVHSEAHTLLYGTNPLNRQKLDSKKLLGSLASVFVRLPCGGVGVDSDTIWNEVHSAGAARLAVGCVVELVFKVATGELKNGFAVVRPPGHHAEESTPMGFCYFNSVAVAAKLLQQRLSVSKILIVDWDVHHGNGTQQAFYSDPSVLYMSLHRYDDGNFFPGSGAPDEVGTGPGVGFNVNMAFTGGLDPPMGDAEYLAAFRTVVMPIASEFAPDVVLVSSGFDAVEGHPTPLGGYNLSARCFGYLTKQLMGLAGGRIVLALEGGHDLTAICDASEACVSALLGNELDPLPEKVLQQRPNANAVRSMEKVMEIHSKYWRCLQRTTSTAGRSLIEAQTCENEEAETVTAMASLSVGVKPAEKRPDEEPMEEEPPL

Row | Structure (SMILES) | pIC50 (Histone deacetylase 4) | pIC50 (Histone deacetylase 1) | pIC50 [1]
1 | CSCC[C@H]1NC(=O)C[C@H]2/C=C/CCSSC[C@@H](NC1=O)C(=O)N[C@H](C(C)C)[C@@H](O)CC(=O)O2 | 4.42 | 9.70 | 6.11
2 | CCCC[C@H]1NC(=O)C[C@H]2/C=C/CCSSC[C@@H](NC1=O)C(=O)N[C@H](C(C)C)[C@@H](O)CC(=O)O2 | 4.33 | 9.32 | 6.03
3 | CSCC[C@H]1NC(=O)C[C@H]2/C=C/CCSSC[C@@H](NC1=O)C(=O)N[C@H](CC(C)C)[C@@H](O)CC(=O)O2 | 4.23 | 9.03 | 5.77
4 | CCCC[C@H]1NC(=O)C[C@H]2/C=C/CCSSC[C@@H](NC1=O)C(=O)N[C@H](CC(C)C)[C@@H](O)CC(=O)O2 | 3.88 | 8.59 | 5.72
5 | C/C=C1\NC(=O)[C@H]2CSSCC/C=C/[C@H](CC(=O)N[C@H](C(C)C)C(=O)N2)OC(=O)[C@H](C(C)C)NC1=O [ROMIDEPSIN] | 5.06 | – | –
6 | CC[C@H](C)[C@H]1NC(=O)[C@H]2CSSCC/C=C/[C@H](CC(=O)N[C@H](CCSC)C(=O)N2)OC(=O)C[C@@H]1O [THAILANDEPSIN A] | 4.43 | 9.55 | 6.08
7 | CCCC[C@H]1NC(=O)C[C@H]2/C=C/CCSSC[C@@H](NC1=O)C(=O)N[C@H]([C@@H](C)CC)[C@@H](O)CC(=O)O2 [THAILANDEPSIN B] | 4.24 | 8.92 | 5.92
